Test [1] addresses T1, μ-opioid receptor (Homo sapiens (Human), UniProt P35372). Nature of the test: μ-opioid receptor radioligand dose-displacement binding assay (HEK-293 cells). As for the experimental part:
Radioligand dose-displacement binding assays for μ-opioid receptors used 0.3 nM [^3H]-diprenorphine (Perkin Elmer, Shelton, Conn.), with […] membrane protein/well in a final volume of 500 μl binding buffer (10 mM MgCl2, 1 mM EDTA, 5% DMSO, 50 mM HEPES, pH 7.4). Reactions were carried out in the absence or presence of increasing concentrations of unlabeled naloxone. All reactions were conducted in 96-deep well polypropylene plates for 2 hours at room temperature. Binding reactions were terminated by rapid filtration onto 96-well Unifilter GF/C filter plates (Perkin Elmer, Shelton, Conn.), presoaked in 0.5% polyethylenimine using a 96-well tissue harvester (Perkin Elmer, Shelton, Conn.) followed by performing three filtration washes with 500 μl of ice-cold binding buffer. Filter plates were subsequently dried at 50° C. for 2-3 hours. BetaScint scintillation cocktail (Perkin Elmer, Shelton, Conn.) was added (50 μl/well), and plates were counted using a Packard Top-Count for 1 min/well. The data were analyzed using the one-site competition curve fitting functions in GraphPad PRISM™ v. 3.0 or higher (San Diego, Calif.), or an in-house function for one-site competition curve-fitting.
(§1) In TABLE 3, binding affinity of certain Compounds of the Invention to the μ- and κ-opioid receptors was determined as described above using HEK-293 cells.

Test [2] has as its target recombinant human kappa opioid receptor (κ) (Homo sapiens (Human), UniProt P41145). Description: κ-opioid receptor radioligand dose-displacement binding assay (HEK-293 cells). As for the experimental part: Membranes from HEK-293 cells, CHO cells or U-2 OS cells expressing the recombinant human kappa opioid receptor (κ) were prepared by lysing cells in ice cold hypotonic buffer (2.5 mM MgCl2, 50 mM HEPES, pH 7.4) (10 mL/10 cm dish) followed by homogenization with a tissue grinder/Teflon pestle. Membranes from a cell line naturally expressing kappa opioid receptor can also be used. Membranes were collected by centrifugation at 30,000×g for 15 min at 4° C. and pellets were resuspended in hypotonic buffer to a final concentration of 1-3 mg/mL. Protein concentrations were determined using the BioRad protein assay reagent with bovine serum albumen as standard. Aliquots of κ receptor membranes were stored at −80° C.
Radioligand dose displacement assays used 0.4 nM [^3H]-U69,593 (GE Healthcare, Piscataway, N.J.; 40 Ci/mmole) with 15 μg membrane protein (recombinant κ opioid receptor expressed in HEK 293 cells; in-house prep) in a final volume of 200 μl binding buffer (5% DMSO, 50 mM Trizma base, pH 7.4). Non-specific binding was determined in the presence of 10 μM unlabeled naloxone or U69,593. All reactions were performed in 96-well polypropylene plates for 1 hour at a temperature of about 25° C. Binding reactions were terminated by rapid filtration onto 96-well Unifilter GF/C filter plates (Perkin Elmer, Shelton, Conn.) presoaked in 0.5% polyethylenimine (Sigma). Harvesting was performed using a 96-well tissue harvester (Perkin Elmer, Shelton, Conn.) followed by five filtration washes with 200 μl ice-cold binding buffer. Filter plates were subsequently dried at 50° C. for 1-2 hours. Fifty μl/well scintillation cocktail (Perkin Elmer, Shelton, Conn.) was added and plates were counted in a Packard Top-Count for 1 min/well.
as §1

Test [3] addresses T1, μ-opioid receptor. Description: μ-opioid receptor [35S]GTPγS functional assay (HEK-293 cells). Type of test: biochemical. Conditions: for Emax: HEK-293 cells, relative to DAMGO. As to the method:
(§2) [^35S]GTPγS functional assays were conducted using freshly thawed μ-receptor membranes prepared in-house from a cell line expressing recombinant μ opioid receptor in a HEK-293, CHO or U-2 OS cell background, or purchased from a commercial source (Perkin Elmer, Shelton, Conn.; or DiscovRx, Fremont, Calif.). Assay reactions were prepared by sequentially adding the following reagents to binding buffer (100 mM NaCl, 10 mM MgCl2, 20 mM HEPES, pH 7.4) on ice (final concentrations indicated): membrane protein (0.026 mg/mL), saponin ([…]), GDP ([…]) and [^35S]GTPγS (0.20 nM; Perkin Elmer, Shelton, Conn.). The prepared membrane solution (190 μl/well) was transferred to 96-shallow well polypropylene plates containing 10 μl of 20× concentrated stock solutions of the agonist [D-Ala^2, N-methyl-Phe^4 Gly-ol^5]-enkephalin (DAMGO) prepared in dimethyl sulfoxide (DMSO). Plates were incubated for 30 min at about 25° C. with shaking. Reactions were terminated by rapid filtration onto 96-well Unifilter GF/B filter plates (Perkin Elmer, Shelton, Conn.) using a 96-well tissue harvester (Perkin Elmer, Shelton, Conn.) followed by three filtration washes with 200 μl of ice-cold wash buffer (10 mM NaH2PO4, 10 mM Na2HPO4, pH 7.4). Filter plates were subsequently dried at 50° C. for 2-3 hours. BetaScint scintillation cocktail (Perkin Elmer, Shelton, Conn.) was added (50 μl/well) and plates were counted using a Packard Top-Count for 1 min/well. Data were analyzed using the sigmoidal dose-response curve fitting functions in GraphPad PRISM v. 3.0, or an in-house function for non-linear, sigmoidal dose-response curve-fitting. [^35S]GTPγS functional assays can also be conducted using freshly thawed μ-receptor membranes prepared from a cell line expressing recombinant μ opioid receptor in a CHO-K1 cell background.
(§3) μ GTP EC50 is the concentration of a compound providing 50% of the maximal response for the compound at a μ-opioid receptor.
(§4) μ GTP Emax (%) is the maximal effect elicited by a compound relative to the effect elicited by DAMGO, a standard μ agonist.
(§5) In TABLE 4, activity response of certain Compounds of the Invention to the μ- and κ-opioid receptors was determined as described above for functional assays using HEK-293 cells.
Background: GTPγS is a poorly hydrolysed GTP analogue; its binding reports G protein activation.

Test [4] addresses T2, κ-opioid receptor (Homo sapiens (Human), UniProt P41145). Nature of the test: κ-opioid receptor [35S]GTPγS functional assay (HEK-293 cells). The test is classed as biochemical. Conditions: for Emax: HEK-293 cells, relative to U69,593. As for the experimental part: (§6) Functional [^35S]GTPγS binding assays were conducted as follows. κ opioid receptor membrane solution was prepared by sequentially adding final concentrations of 0.026 μg/μl κ membrane protein (in-house), 10 μg/mL saponin, 3 μM GDP and 0.20 nM [^35S]GTPγS to binding buffer (100 mM NaCl, 10 mM MgCl2, 20 mM HEPES, pH 7.4) on ice. The prepared membrane solution (190 μl/well) was transferred to 96-shallow well polypropylene plates containing 10 μl of 20× concentrated stock solutions of agonist prepared in DMSO. Plates were incubated for 30 min at a temperature of about 25° C. with shaking. Reactions were terminated by rapid filtration onto 96-well Unifilter GF/B filter plates (Perkin Elmer, Shelton, Conn.) using a 96-well tissue harvester (Packard) and followed by three filtration washes with 200 μl ice-cold binding buffer (10 mM NaH2PO4, 10 mM Na2HPO4, pH 7.4). Filter plates were subsequently dried at 50° C. for 2-3 hours. Fifty μl/well scintillation cocktail (Perkin Elmer, Shelton, Conn.) was added and plates were counted in a Packard Top-Count for 1 min/well.
(§7) κ GTP EC50 is the concentration of a compound providing 50% of the maximal response for the compound at a κ receptor.
(§8) κ GTP Emax (%) is the maximal effect elicited by a compound relative to the effect elicited by U69,593.
as §5

The target of test [5] is T2, κ-opioid receptor. Description: κ-opioid receptor functional assay (U-2 OS cells). Particulars: for Emax: U-2 OS cells, relative to U69,593. The test is classed as biochemical. As for the experimental part: as §6, §7, §8
The following TABLE 5 provides results on the activity response of certain Compounds of the Invention at the μ- and κ-opioid receptors determined as described above using U-2 OS cells.

Test [6] addresses T1, μ-opioid receptor. Description: μ-opioid receptor functional assay (U-2 OS cells). Type of test: biochemical. Particulars: for Emax: U-2 OS cells, relative to DAMGO. As for the experimental part: as §2, §3, §4

Consider `COc1ccc2c(c1)[C@]13CCN(CC4CC4)[C@H](C2)[C@]12CC[C@](N)(C3)C(=O)O2` [Compound 3, (4bR,6S,8aS,9R)-6-amino-11-(cyclopropylmethyl)-3-methoxy-5,6,7,8,9,10-hexahydro-9,4b-(epiminoethano)-8a,6-(epoxymethano)phenanthren-15-one], for which the Ki (usually the equilibrium dissociation constant of an inhibitor or competing ligand from its target) on μ-opioid receptor [1] stood at 1330 ± 313 nM; in test [2], 248 ± 54.6 nM. The EC50 (commonly the concentration needed to bring the measured effect to its halfway point) on μ-opioid receptor [3] amounted to 2980 ± 706 nM; on κ-opioid receptor [4], 3010 ± 274 nM; at κ-opioid receptor [5], 807 ± 83.2 nM. Further, the Emax (usually the maximal effect, on the per cent scale that the assay sets) on μ-opioid receptor [3] was found to be 48.3 ± 6.01%; at κ-opioid receptor [4], 79.7 ± 10.3%; on κ-opioid receptor [5] it was 99 ± 1.73%.

On to `COc1ccc2c(c1)[C@]13CCN(CC4CC4)[C@H](C2)[C@]12CC[C@](O)(C3)C(=O)O2` [Compound 4, (4bR,6S,8aS,9R)-11-(cyclopropylmethyl)-6-hydroxy-3-methoxy-5,6,7,8,9,10-hexahydro-9,4b-(epiminoethano)-8a,6-(epoxymethano)phenanthren-15-one], for which the inhibition constant Ki on μ-opioid receptor [1] worked out at 6350 ± 1020 nM; in test [2], 251 ± 62.9 nM. Further, the EC50 on μ-opioid receptor [3] was > 20000 nM; on κ-opioid receptor [4] it was 2850 ± 1190 nM; on κ-opioid receptor [5], 1110 ± 159 nM. In addition, the maximal effect (Emax) turned out to be 1% at μ-opioid receptor [3], 92 ± 6.03% on κ-opioid receptor [4] and 105 ± 7.02% at κ-opioid receptor [5].

Turning to `O=C1O[C@@]23CC[C@]1(O)C[C@@]21CCN(CC2CC2)[C@@H]3Cc2ccc(O)cc21` [Compound 9, (4bR,6S,8aS,9R)-11-(cyclopropylmethyl)-3,6-dihydroxy-5,6,7,8,9,10-hexahydro-9,4b-(epiminoethano)-8a,6-(epoxymethano)phenanthren-15-one], the values for the Ki (on μ-opioid receptor [1]; in test [2]) were 10.1 ± 2.46 nM and 0.95 ± 0.29 nM, respectively. For the same compound, the EC50 was > 20000 nM on μ-opioid receptor [3], 54.7 ± 7.26 nM on κ-opioid receptor [4], 9.17 ± 1.18 nM on μ-opioid receptor [6] and 5.23 ± 0.38 nM on κ-opioid receptor [5]. Moreover, the maximal response (Emax) was determined as 0.5 ± 0.5% at μ-opioid receptor [3], 54 ± 3.89% at κ-opioid receptor [4], 63.7 ± 5.21% on μ-opioid receptor [6] and 91.7 ± 4.84% at κ-opioid receptor [5].

Take `COc1ccc2c(c1)[C@]13CCN(CC4CC4)[C@H](C2)[C@]12CC[C@@](NC(=O)C1CC1)(CO2)C3` [Compound 22, N-((4bR,6S,8aS,9R)-11-(cyclopropylmethyl)-3-methoxy-5,6,7,8,9,10-hexahydro-9,4b-(epiminoethano)-8a,6-(epoxymethano)phenanthren-6-yl)cyclopropanecarboxamide]: the Ki on μ-opioid receptor [1] was determined as 126 ± 20.7 nM; in test [2] it was 0.3 ± 0.055 nM. Further, the EC50 on μ-opioid receptor [3] stood at 939 ± 394 nM; on μ-opioid receptor [6], 71.2 ± 10.8 nM; at κ-opioid receptor [5], 0.9 ± 0.096 nM. The Emax at μ-opioid receptor [3] was 18 ± 0.41%; on μ-opioid receptor [6], 90.7 ± 2.73%; on κ-opioid receptor [5] it was 111 ± 2.6%.

For `COc1ccc2c(c1)[C@]13CCN(CC4CC4)[C@H](C2)[C@]12CC[C@@](NC(=O)CC(F)(F)F)(CO2)C3` [Compound 23, N-((4bR,6S,8aS,9R)-11-(cyclopropylmethyl)-3-methoxy-5,6,7,8,9,10-hexahydro-9,4b-(epiminoethano)-8a,6-(epoxymethano)phenanthren-6-yl)-3,3,3-trifluoropropanamide], the Ki at μ-opioid receptor [1] was found to be 136 ± 35.7 nM; in test [2], 0.66 ± 0.22 nM. Also, the concentration for a half-maximal effect (EC50) on μ-opioid receptor [3] came to 419 ± 108 nM; on μ-opioid receptor [6], 21.6 ± 1.38 nM; at κ-opioid receptor [5], 1.79 ± 0.25 nM. Further, the Emax at μ-opioid receptor [3] came to 39.5 ± 2.1%; at μ-opioid receptor [6], 98.7 ± 1.45%; at κ-opioid receptor [5], 115 ± 3.06%.

In the case of `COc1ccc2c(c1)[C@]13CCN(CC4CC4)[C@H](C2)[C@]12CC[C@@](NS(=O)(=O)c1ccc(Cl)cc1)(CO2)C3` [Compound 24, 4-Chloro-N-((4bR,6S,8aS,9R)-11-(cyclopropylmethyl)-3-methoxy-5,6,7,8,9,10-hexahydro-9,4b-(epiminoethano)-8a,6-(epoxymethano)phenanthren-6-yl)-benzenesulfonamide], the Ki stood at 0.29 ± 0.043 nM on μ-opioid receptor [1] and 0.057 ± 0.01 nM in test [2]. The EC50 is > 20000 nM at μ-opioid receptor [3], 0.25 ± 0.014 nM on μ-opioid receptor [6] and 0.11 ± 0.011 nM on κ-opioid receptor [5]. Also, the maximal response (Emax) on μ-opioid receptor [3] worked out at 6%; at μ-opioid receptor [6] it was 71.7 ± 0.67%; at κ-opioid receptor [5] it was 114 ± 2.73%.

Consider `CC(C)(C)C(=O)N[C@]12CC[C@@]3(OC1)[C@H]1Cc4ccc(O)cc4[C@@]3(CCN1CC1CC1)C2` [Compound 26, N-((4bR,6S,8aS,9R)-11-(cyclopropylmethyl)-3-hydroxy-5,6,7,8,9,10-hexahydro-9,4b-(epiminoethano)-8a,6-(epoxymethano)phenanthren-6-yl)pivalamide], for which the figures for the inhibition constant Ki (on μ-opioid receptor [1]; in test [2]) were 0.056 ± 0.01 nM and 0.059 ± 0.01 nM, respectively. Moreover, the EC50 at μ-opioid receptor [3] is > 20000 nM; on μ-opioid receptor [6] it was 0.28 ± 0.01 nM; at κ-opioid receptor [5], 0.031 nM. For the same compound, the maximal effect (Emax) was 4 ± 1.53% at μ-opioid receptor [3], 89 ± 3.06% on μ-opioid receptor [6] and 91.7 ± 2.73% on κ-opioid receptor [5].

The values are drawn from patent US9862726B2, “Opioid receptor modulating oxabicyclo[2.2.2]octane morphinans” (PURDUE PHARMA L.P., priority 2013, dated 2018).
